# Reference: patent US9763448B2, “Fungicidal mixtures I comprising strobilurin-type fungicides” (BASF SE, priority 2013, dated 2017)
# Read-outs that look alike come from different tables or passages of the source.
# How the values were obtained:
# Format in all cases: cell-based
# [1] = system: Phytophthora infestans; conditions: 0.063 ppm, single compound; 7 days after inoculation, 18° C.
# [2] = system: Leptosphaeria nodorum; experiment: Microtest: activity against the wheat leaf spot pathogen Leptosphaeria nodorum (MTP, absorption at 405 nm); conditions: 0.004 ppm, single compound; 7 days after inoculation, 18° C.
# [3] = system: Pyricularia oryzae; conditions: single compound, 7 days after inoculation, 18° C.
structure (smiles),measurement,setting,value
"CC(O)(Cn1cncn1)c1ccc(Oc2ccc(Cl)cc2)cc1C(F)(F)F (stereo not drawn) [II-6, 2-[4-(4-chlorophenoxy)-2-(trifluoromethyl)phenyl]-1-(1,2,4-triazol-1-yl)propan-2-ol]",Observed efficacy,[1],7%
same,Observed efficacy,[2],7%
"CNC(=O)C(=N/OC)/C(C)=C\COc1ccn(-c2ccc(Cl)cc2F)n1 [I-13, (Z,2E)-5-[1-(4-chloro-2-fluoro-phenyl)pyrazol-3-yl]oxy-2-methoxyimino-N,3-dimethyl-pent-3-enamide]",Observed efficacy,[1],4%
same,Observed efficacy,[3]; 0.00025 ppm,7%
same,Observed efficacy,[2],21%
"OC(Cn1cncn1)(c1ccc(Oc2ccc(Cl)cc2)cc1C(F)(F)F)C1CC1 (stereo not drawn) [II-2, 1-[4-(4-chlorophenoxy)-2-(trifluoromethyl)phenyl]-1-cyclopropyl-2-(1,2,4-triazol-1-yl)ethanol]",Observed efficacy,[3]; 0.016 ppm,6%
